These results are taken from patent publication US8420778B2, “Tripeptides and derivatives thereof for cosmetic application in order to improve skin structure” (DSM IP Assets B.V., priority 2003, dated 2013).

For this assay, the system named is Collagen Type I Synthesis in Fibroblast Cell Cultures. Kind of assay: Collagen stimulation by ELISA: stimulation of collagen type I synthesis in fibroblast cell cultures. It counts as cell-based. Particulars: human skin fibroblasts, 72 h incubation. The protocol:
Type I collagen of in-vitro cultured skin fibroblasts was detected with an ELISA (Enzyme-Linked Immunosorbent Assay). The increase in the collagen production of the cells was quantified in the presence of the peptidic actives by using this method. Human skin fibroblasts were isolated from foreskin and bred in culture medium. After 72 h of incubation with the corresponding peptides (actives) the quantitative determination was performed using an antibody specific for collagen I. [table] The 1st AB (MAB1340; Chemicon) and the 2nd AB (31430; Socochim S.A.) are diluted 1/500 with AB dilution solution. The fibroblasts are incubated until confluent at a density of approx. 5000 cells per well in 96 well-plates in culture medium (37° C./5% CO2) for 3 days. The medium is replaced with test medium with three different concentrations of test substance in triplicate. The following controls are tested on each plate: [table] After incubation of the plates for further 72 hours, the precipitated collagen I is detected and quantified according to the following protocol: • discard medium and wash with 200 μl/well of PBS • fix with 100 μl/well of methanol for 15 min at RT/shaker 600 rpm • discard methanol and block with 200 μl/well of milk solution for 30 min at RT/shaker 600 rpm • discard milk solution and incubate with 100 μl/well of the 1st AB dilution for 2 h at RT/shaker 600 rpm • discard 1st AB dilution and wash 3× with 200 μl/well of washing buffer • incubate with 100 μl/well of the 2nd AB dilution for 3 h at RT/shaker 600 rpm • discard 2nd AB dilution; wash 3× with 200 μl/well of washing buffer and 1× with 100 μl/well of PBS • add 100 μl/well of substrate solution for 20 min at RT/shaker 600 rpm • stop the reaction with 50 μl/well of H2SO4 (2M) and measure at 492 nm.

As for “Elaidoyl-Lys-Thr-Lys-OH*2TFA [Example 4]”, the “% Stimulation” value (Conc. 25 µmol/L) is reported as 104%. As for Palm-Lys-Val-Lys-OH *2AcOH [No 4], for the setting “Conc. 50 µmol/L”, the “% Stimulation” value was 48%. H-Lys-Val-Lys-O-Octyl*3TFA [Example 8]: where the note is “Conc. 25 µmol/L”, the “% Stimulation” value worked out at 31%. In the case of “Elaidoyl-Lys-Phe-Lys-OH *2AcOH [Reference compound A, reference compound]”, the “% Stimulation” value is listed as 23% (Conc. 0.01 µmol/L) and 43% (Conc. 20.0 µmol/L). On to H-Lys-Val-Lys-NH-Cetyl*3TFA [Example 7], for which, under “Conc. 100 µmol/L”, the “% Stimulation” value was 61%.

For H-Lys-Thr-Lys-OH*3TFA [Example 5], the “% Stimulation” value (Conc. 50 µmol/L) is given as 35%.
